Data on one compound can be found in US9969714B2, “Carboxylic acid compounds useful for inhibiting microsomal prostaglandin E2 synthase-1” (Eli Lilly and Company, priority 2014, dated 2018).

The subject of assay [1] is human whole blood. The assay is described as follows: Human whole blood assay (LPS-induced PGE2, LC/MS/MS). The assay is classed as cell-based. Particulars: LPS 100 μg/mL, 20-24 hours, n=6, read-out: IC50, inhibition of PGE2 formation. As to the method: Blood is collected from normal volunteer donors into sodium heparin VACUTAINER tubes. Donors are selected, in part, on their confirmation that they have not taken NSAIDs, aspirin, Celebrex®, or glucocorticoids within two weeks of the donation. All tubes/donor are pooled into 250 mL Corning conical centrifuge tubes and 436.5 μL/well is distributed into deep well polypropylene plates. Compounds are diluted in DMSO to 100× final and 4.5 μL/well in duplicate or triplicate is added to give 7 point curves. […] One hundred microliters is quantitatively transferred to Costar cluster tubes blocks and 400 μL/well of the methanol stop reagent and internal standards, d4-PGE2, d4-PGF2α, and […] are added. […]
Solid phase extraction is performed using Waters HLB 30 mg/bed 96 well plates on a vacuum manifold: Step 1, the matrix is washed with methanol (1 mL), followed by 0.1% formic acid in water (1 mL); Step 2, 400 μL sample is applied along with 0.1% formic acid in water (900 μL) and allowed to bind for 5 minutes; Step 3, the matrix is washed with 0.1% formic acid in water (600 μL), followed by 80/20 water/methanol (600 μL); Step 4, the products are eluted with 2-500 μL volumes of EtOAc; Step 5 the samples are dried under nitrogen and reconstituted in 75/25 water/acetonitrile with 0.1% formic acid (50 μL). The products are analyzed by LC/MS/MS.

Assay [2] concerns Human epithelial lung carcinoma cell line A549. Put plainly: Cell based assay for measuring eicosanoid selectivity (rhIL-1β-induced PGE2, EIA). As to conditions: A549 cells, rhIL-1β 0.1 ng/mL, approximately 18 hours, read-out: IC50, inhibition of PGE2 formation. The method, then:
Human epithelial lung carcinoma cell line A549 is obtained from ATCC (CCL-185) and maintained in cell growth medium (Kaighn's F12 cell culture medium+10% fetal bovine serum (FBS)), under standard 5% CO2 humidified atmosphere at 37° C. The cells are passaged at 1:3 twice per week.
For the assays, cells are harvested from flasks by washing once with phosphate buffered saline (PBS), then once with Trypsin-EDTA. After 3-5 minutes at 37° C., the cells are suspended in cell growth medium and centrifuged at 2,000 rpm, 25° C., for 5 minutes. The supernatant is aspirated and the cell pellet is re-suspended in cell growth medium. The cell number is determined by counting an aliquot of cells which has been diluted in PBS and Trypan blue on a hemocytometer. Cells are plated at 40,000/well in 96 well Falcon plates 24 hours prior to treatment. Compounds are diluted in DMSO to 100× of the final concentration in Screen Mates tubes. The medium is removed from the cells and fresh medium (90 μL/well) is added to the cells. The compounds are added at 1 μL/well, n=2, to give seven concentrations each. Cells are pretreated with compounds for 30 minutes at 37° C., 5% CO2. […] After approximately 90-120 minutes at room temperature on an orbital shaker at 100 rpm, the plates are read at A412 on a plate reader. […]

For orientation: IC50 means the concentration at which inhibition is half-maximal. Turning to `Cc1cccc2ccc(N3CCC(C(=O)N[C@H]4CCC[C@H]4CCc4ccccc4C(=O)O)CC3)nc12` [Example 1, 2-(2-((1S,2S)-2-(1-(8-Methylquinolin-2-yl)piperidine-4-carboxamido)cyclopentyl)ethyl)benzoic acid], the IC50 in assay [1] is 5.9 ± 3.4 nM; in assay [2] it was 5.3 nM.
